One block for each compound: values may come before it.
Legend:
[1] = target: T1, purified human recombinant GK (Homo sapiens, UniProt P35557); experiment: Glucokinase activity, coupled enzymatic assay (NADH absorbance at 340 nm); format: biochemical; settings: 5 mM glucose; read-out: EC50 values for GK activation at 5 mM Glucose conc
T1 sequence (P35557 1-465): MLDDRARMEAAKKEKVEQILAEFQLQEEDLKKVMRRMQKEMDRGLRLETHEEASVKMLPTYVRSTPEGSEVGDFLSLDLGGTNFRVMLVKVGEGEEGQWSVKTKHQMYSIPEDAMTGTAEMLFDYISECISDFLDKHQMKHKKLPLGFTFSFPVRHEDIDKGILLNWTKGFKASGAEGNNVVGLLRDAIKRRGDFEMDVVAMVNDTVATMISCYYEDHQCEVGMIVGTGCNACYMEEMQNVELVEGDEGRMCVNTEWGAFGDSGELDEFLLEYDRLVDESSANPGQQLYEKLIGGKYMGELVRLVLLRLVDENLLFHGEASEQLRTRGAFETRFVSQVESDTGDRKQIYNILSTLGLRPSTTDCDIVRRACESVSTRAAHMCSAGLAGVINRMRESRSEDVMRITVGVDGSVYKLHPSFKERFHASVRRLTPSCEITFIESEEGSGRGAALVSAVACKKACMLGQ
Text: (§1) Glucokinase (GK) activity, in vitro, has been measured using a coupled enzymatic assay (Ref: Hariharan et al (1997) Diabetes 46: 11-16). GK catalyzes the first step, the conversion of glucose to glucose-6-phosphate (G6P) in the presence of ATP. G6P in turn is converted by glucose-6-phosphate dehydrogenase (G6PD) to 6-phosphogluconate, a process that requires NAD, resulting in NADH formation. Since the GK-catalyzed step is the rate-limiting step of this coupled enzymatic process, the rate of accumulation of 6-phosphogluconate and NADH is directly proportional to the rate of glucose phosphorylation by GK. The rate of the GK-catalyzed reaction can therefore be measured by monitoring the increase in NADH absorbance at 340 nm.
(§2) The assay is carried out according to the protocol outlined in Hariharan et al (1997), Diabetes 46: 11-16. Briefly, the test compounds are incubated in a reaction mix containing 25 mM HEPES (pH 7.2), 10 mM MgCl2, 100 mM KCl, 5 mM ATP, 2 mM DTT, 0.5 mM NAD, 1 U/ml Leuconostoc mesenteroides G6PD, 0.3 U/ml of purified human recombinant GK, and different concentrations of glucose. Enzymatic activity is calculated from the initial reaction velocity, measured from the change in NADH absorbance as a function of time.
Compounds described in formula (I), in concentration ranges from 1.0 nM to 500 μM, are tested in purified human recombinant Glucokinase assay described above.
A compound is considered to be a glucokinase activator if it, in its testable range of concentrations, yields a higher rate of glucose phosphorylation than in its absence.

[2] = target: T1, purified human recombinant GK; experiment: Characterization of partial glucokinase activators: dose dependent effect on % ΔS0.5 of glucokinase for glucose; format: biochemical; settings: for EC50: sigmoidal fit of % ΔS0.5 vs log concentration, read-out: EC50 (measured against % ΔS0.5); for Classification as partial or full GK activator: compared to Ro-28-1675, partial = S0.5 shift between 20% and 90%, full = 90% or more
Protocol: The ΔS0.5 is then normalized to a percent scale, where the S0.5 in the vehicle control is set to 0% and 0 mM glucose is set to 100%. […] The EC50 of % change in S0.5 is obtained from the sigmoidal fit of the data.
The change in the S0.5 of glucokinase (ΔS0.5) for glucose in the presence of Examples A11, O15 and J1 is calculated by subtracting the S0.5 at each concentration of each Example from the S0.5 in the vehicle control. The ΔS0.5 is then normalized to a percent scale, where the S0.5 in the vehicle control is set to 0% and 0 mM glucose is set to 100%. The % ΔS0.5 is then plotted against the log of the concentration of each Example.
FIG. 2B illustrates such a derived plot, taking S0.5 data from FIG. 2A.
as §1, §2
Compounds of interest are tested in GK assay to monitor dose dependent effect on Glucokinase activation (in kinetic mode), as described above, at various glucose concentration.

primary rat hepatocytes = experiment: Glycogen synthesis in primary rat hepatocytes; format: cell-based; settings: 3 hours, over DMSO control
Protocol: Primary hepatocytes are collected from male Wistar rats, and tested for viability by trypan blue exclusion. […] The medium is then replaced with fresh MEM (serum-free) containing 2 μCi/ml of D-[U^14C]-Glucose along with 10 μM of the compound in a final DMSO concentration of 0.1%. The final glucose concentration is brought to 10 mM by the addition of D-Glucose (MEM already contains 5 mM glucose). The cells are incubated for 3 hours at 37° C. […] After another round of centrifugation, the supernatant is removed, and the pellet containing the precipitated glycogen is dried overnight. De novo synthesized glycogen is estimated in a scintillation counter (MicroBeta Trilux, Perkin Elmer), and expressed as fold increase over DMSO control.
The protocol for isolation of primary rat hepatocytes is based on the method described in “Methods in Enzymology, Vol. III. pp 34-50. Ed. by S. P. Colowick and N. O. Kaplan.
Compounds described in formula (I), in concentration ranges from 1.0 nM to 500 μM, are tested in glycogen synthesis assay described above.

[3] = animal efficacy models; PSN-GK1 at higher dose; cited from earlier work
[4] = Table 4, partial glucokinase activators
[5] = Table 3, vehicle S0.5 = 0%, 0 mM glucose = 100%

Compound: 2-(2,4-Difluoro-phenoxy)-2-methyl-N-(1H tetrazol-5-yl)-propionamide [Example A27]
EC50 [1]: 7 µM

Compound: CC(C)(Oc1ccc2ccccc2c1)C(=O)Nc1nccs1 [Example A5, 2-Methyl-2-(naphthalen-2-yloxy)-N-thiazol-2-yl-propionamide]
melting point: 117 to 118 °C

Compound: CC(C)(Oc1ccc2c(c1)OCO2)C(=O)Nc1ncc(Cl)s1 [Example A10, 2-(Benzo[1,3]dioxol-5-yloxy)-N-(5-chloro-thiazol-2-yl)-2-methyl-propionamide]
EC50 [1]: 2.2 µM
Emax [2, 4]: 75%

Compound: CC(C)(Oc1ccc(F)cc1F)C(=O)Nc1ncc(Cl)s1 [Example A11, N-(5-Chloro-thiazol-2-yl)-2-(2,4-difluoro-phenoxy)-2-methyl-propionamide]
EC50 [1]: 1.8 µM
EC50 ([2]; Table 3): 1.25 µM
Emax [2, 5]: 7%
Classification as partial or full GK activator [2]: partial GK activators

Compound: CC(C)(Oc1ccc2[nH]ccc2c1)C(=O)Nc1ncc(Cl)s1 [Example A17, N-(5-Chloro-thiazol-2-yl)-2-(1H-indol-5-yloxy)-2-methyl-propionamide]
Fold increase in glycogen synthesis at 10 μM Compound (primary rat hepatocytes; Table 2, 10 mM glucose): 2.9 fold

Compound: CC(C)(Oc1ccc(F)cc1F)C(=O)Nc1ncc(F)s1 [Example A22, 2-(2,4-Difluoro-phenoxy)-N-(5-fluoro-thiazol-2-yl)-2-methyl-propionamide]
Fold increase in glycogen synthesis at 10 μM Compound (primary rat hepatocytes; Table 5, 10 mM glucose): 2.3 fold

Compound: CCC(C)(Oc1ccc(F)cc1F)C(=O)Nc1ncc(Cl)s1 (stereo not shown) [Example G7, N-(5-Chloro-thiazol-2-yl)-2-(2,4-difluoro-phenoxy)-2-methyl-butyramide]
EC50 [1]: 7.1 µM
Emax [2, 4]: 60%

Compound: CCC(C)(Oc1ccc(F)cc1F)C(=O)Nc1nc(CC(=O)O)cs1 (stereo not shown) [Example H1, {2-[2-(2,4-Difluoro-phenoxy)-2-methyl-butyrylamino]-thiazol-4-yl}-acetic acid]
melting point: 148 to 149 °C

Compound: CC(Oc1ccc(F)cc1F)(C(=O)Nc1ncc(F)s1)c1ccc(S(C)(=O)=O)cc1 (stereo not shown) [Example O9, 2-(2,4-Difluoro-phenoxy)-N-(5-fluoro-thiazol-2-yl)-2-(4-methanesulfonyl-phenyl)-propionamide]
Fold increase in glycogen synthesis at 10 μM Compound (primary rat hepatocytes; Table 5, 10 mM glucose): 2.8 fold

Compound: CC(Oc1ccc(F)cc1F)(C(=O)Nc1ccc(C(=O)O)cn1)c1ccc(S(=O)(=O)C2CC2)cc1 (stereo not shown) [Example P5, 6-[2-(4-Cyclopropanesulfonyl-phenyl)-2-(2,4-difluoro-phenoxy)-propionylamino]-nicotinic acid]
Fold increase in glycogen synthesis at 10 μM Compound (primary rat hepatocytes; Table 2, 10 mM glucose): 3.2 fold

Compound: CS(=O)(=O)c1ccc([C@@H](CC2CCCC2)C(=O)Nc2nccs2)cc1 [Ro-28-1675]
Hypoglycemia [3]: cause hypoglycemia in animal efficacy models

Continued, in another order:

EC50 [1]: 4.5 µM
EC50 ([2]; Table 3): 3 µM
Emax [2, 5]: 55%
Classification as partial or full GK activator [2]: partial GK activators
Compound: CC(C)(Oc1ccc(F)cc1F)C(=O)Nc1nc(CC(=O)Nc2ccc(F)cc2)cs1 [Example J1, 2-(2,4-Difluoro-phenoxy)-N-{4-[(4-fluoro-phenylcarbamoyl)-methyl]-thiazol-2-yl}-2-methyl-propionamide]

Emax [2, 4]: 40%
Compound: CC(C)(Oc1ccc2c(c1)OCO2)C(=O)Nc1nc(CC(=O)Nc2ccc(F)cc2)cs1 [Example J2, 2-(Benzo[1,3]dioxol-5-yloxy)-N-{4-[(4-fluoro-phenylcarbamoyl)-methyl]-thiazol-2-yl}-2-methyl-propionamide]
Fold increase in glycogen synthesis at 10 μM Compound (primary rat hepatocytes; Table 5, 10 mM glucose): 1.8 fold

Emax [2, 4]: 50%
Compound: CC(C)(Oc1ccc(F)cc1F)C(=O)Nc1nc(CC(=O)Nc2ccc(F)cc2)c(Cl)s1 [Example J4, N-{5-Chloro-4-[(4-fluoro-phenylcarbamoyl)-methyl]-thiazol-2-yl}-2-(2,4-difluoro-phenoxy)-2-methyl-propionamide]

melting point: 166 to 168 °C
Compound: CC(C)(Oc1cccc(C(=O)O)c1)C(=O)Nc1nccs1 [Example K1, 3-[1-Methyl-1-(thiazol-2-ylcarbamoyl)-ethoxy]-benzoic acid]

melting point: 89 to 90 °C
Compound: CC(Oc1ccc(F)cc1F)(C(=O)Nc1nccs1)c1ccc(S(C)(=O)=O)cc1 (stereo not shown) [Example O1, 2-(2,4-Difluoro-phenoxy)-2-(4-methanesulfonyl-phenyl)-N-thiazol-2-yl-propionamide]

melting point: 67 to 68 °C
Compound: CSc1ccc(OC(C)(C(=O)Nc2ncc(Cl)s2)c2ccc(S(C)(=O)=O)cc2)cc1 (stereo not shown) [Example O4, N-(5-Chloro-thiazol-2-yl)-2-(4-methanesulfonyl-phenyl)-2-(4-methylsulfanyl-phenoxy)-propionamide]

EC50 [1]: 1.8 µM
EC50 ([2]; Table 3): 1.2 µM
Emax [2, 5]: 55%
Classification as partial or full GK activator [2]: partial GK activators
Compound: CC(Oc1ccc(F)cc1F)(C(=O)Nc1ncc(Cl)s1)c1ccc(S(=O)(=O)C2CC2)cc1 (stereo not shown) [Example O15, N-(5-Chloro-thiazol-2-yl)-2-(4-cyclopropanesulfonyl-phenyl)-2-(2,4-difluoro-phenoxy)-propionamide]

EC50 [1]: 5.4 µM
Compound: Cc1cnc(NC(=O)C(C)(Oc2ccc(F)cc2F)c2ccc(S(C)(=O)=O)cc2)s1 (stereo not shown) [Example O16, 2-(2,4-Difluoro-phenoxy)-2-(4-methanesulfonyl-phenyl)-N-(5-methyl-thiazol-2-yl)-propionamide]

Emax [2, 4]: 60%
Compound: CC(Oc1ccc(Cl)cc1)(C(=O)Nc1ncc(Cl)s1)c1ccc(S(C)(=O)=O)cc1 (stereo not shown) [Example O18, 2-(4-Chloro-phenoxy)-N-(5-chloro-thiazol-2-yl)-2-(4-methanesulfonyl-phenyl)-propionamide]

Emax [2, 4]: 75%
Compound: CC(Oc1ccc(F)cc1F)(C(=O)Nc1ncc(Cl)s1)c1ccc(S(C)(=O)=O)cc1 (stereo not shown) [Example O19, N-(5-Chloro-thiazol-2-yl)-2-(2,4-difluorophenoxy)-2-(4-methanesulfonyl-phenyl)-propionamide]

Emax [2, 4]: 50%
Compound: CC(Oc1ccc(F)c(F)c1)(C(=O)Nc1ncc(Cl)s1)c1ccc(S(C)(=O)=O)cc1 (stereo not shown) [Example O20, N-(5-Chloro-thiazol-2-yl)-2-(3,4-difluoro-phenoxy)-2-(4-methanesulfonyl-phenyl)-propionamide]

EC50 [1]: 7 µM
melting point: 109 to 111 °C
Compound: CC(Oc1ccc(F)cc1F)(C(=O)Nc1nc(CC(=O)O)c(Cl)s1)c1ccc(S(C)(=O)=O)cc1 (stereo not shown) [Example P1, {5-Chloro-2-[2-(2,4-difluoro-phenoxy)-2-(4-methanesulfonyl-phenyl)-propionylamino]-thiazol-4-yl}-acetic acid]

EC50 [1]: > 14 µM
Compound: CC(Oc1ccc(F)cc1F)(C(=O)Nc1ccc(C(=O)O)cn1)c1ccc(S(C)(=O)=O)cc1 (stereo not shown) [Example P4, 6-[2-(2,4-Difluoro-phenoxy)-2-(4-methanesulfonyl-phenyl)-propionylamio]-nicotinic acid]
